Test results as given in patent publication US20060264460A1 (Wyeth, priority 2005, published 2006).

Target: T1, human Cot/Tpl2 kinase (Homo sapiens, UniProt P41279)
T1 construct: human Cot/Tpl2 kinase construct encoding residues 30-398; 6His (N); made in house; host or cells: Sf9 insect cells, baculovirus system (BD Biosciences)
Assay: Tpl2/Cot kinase assay: GST-MEK1 phosphorylation detected by ELISA (DELFIA Eu)
Assay type: biochemical
Settings: Tpl2/Cot kinase, GST-MEK1 substrate, 50 uM ATP, 1 h at 30° C.; Table 2
Outline: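 His-tagged human Tpl2 from Sf9 cells, Ni-affinity and size-exclusion purified (monomer). 0.4 nM Tpl2 with 35 nM GST-MEK1, 50 uM ATP, MOPS pH 7.2, 1% DMSO, 1 h at 30° C; EDTA stop. MEK1 Ser217/221 phosphorylation detected by anti-phospho-MEK1 and Eu-labelled secondary ELISA; IC50 fitted.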

T1 sequence (P41279 30-398): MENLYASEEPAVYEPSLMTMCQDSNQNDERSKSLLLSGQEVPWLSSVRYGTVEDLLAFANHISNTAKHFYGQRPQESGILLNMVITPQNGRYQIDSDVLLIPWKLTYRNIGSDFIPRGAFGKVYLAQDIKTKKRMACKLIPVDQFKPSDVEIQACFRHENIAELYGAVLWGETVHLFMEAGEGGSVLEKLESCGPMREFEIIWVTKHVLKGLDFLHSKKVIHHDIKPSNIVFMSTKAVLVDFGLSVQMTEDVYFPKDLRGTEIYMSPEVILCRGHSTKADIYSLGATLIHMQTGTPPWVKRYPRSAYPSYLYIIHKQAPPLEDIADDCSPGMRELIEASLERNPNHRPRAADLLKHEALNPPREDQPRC

SMILES | IC50
N#Cc1cnc2c(Cl)cc(NCc3cn(CC(O)c4ccccn4)nn3)cc2c1Nc1ccc(F)c(Cl)c1 (stereo not drawn) [Example 993] | 0.048 µM
Cc1cc(CNc2cc(Cl)c3ncc(C#N)c(Nc4ccc(F)c(Cl)c4)c3c2)no1 [Example 996] | > 3 µM
CC(C)N1CCC(n2cc(CNc3cc(Cl)c4ncc(C#N)c(NC5CCC5)c4c3)nn2)CC1 [Example 999] | 0.13 µM
CC(C)N1CCC(n2cc(CNc3cc(Cl)c4ncc(C#N)c(NC5CCOCC5)c4c3)nn2)CC1 [Example 1000] | 0.48 µM
N#Cc1cnc2c(Cl)cc(NCc3cn(CC(O)c4ccncc4)nn3)cc2c1Nc1ccc(F)c(Cl)c1 (stereo not drawn) [Example 1001] | 0.019 µM
N#Cc1cnc2c(Cl)cc(NCc3cccs3)cc2c1Nc1ccc(F)c(Cl)c1 [Example 1002] | > 3 µM
N#Cc1cnc2c(Cl)cc(NCc3cc(Br)cs3)cc2c1Nc1ccc(F)c(Cl)c1 [Example 1004] | > 3 µM
N#Cc1cnc2c(Cl)cc(NCc3cncc(C(O)(C(F)(F)F)C(F)(F)F)c3)cc2c1Nc1ccc(F)c(Cl)c1 [Example 1019] | > 3 µM
N#Cc1cnc2c(Cl)cc(NCc3cn(CCc4cccnc4)nn3)cc2c1Nc1ccc(F)c(Cl)c1 [Example 1020] | 0.13 µM
CN(C)CCCc1csc(CNc2cc(Cl)c3ncc(C#N)c(Nc4ccc(F)c(Cl)c4)c3c2)c1 [Example 1022] | 0.98 µM
CN(C)CC#Cc1csc(CNc2cc(Cl)c3ncc(C#N)c(Nc4ccc(F)c(Cl)c4)c3c2)c1 [Example 1023] | 1.16 µM
N#Cc1cnc2c(Cl)cc(NCc3cc(Br)co3)cc2c1Nc1ccc(F)c(Cl)c1 [Example 1024] | > 3 µM
N#Cc1cnc2c(Cl)cc(NCc3cn(Cc4cncc(C(O)(C(F)(F)F)C(F)(F)F)c4)nn3)cc2c1Nc1ccc(F)c(Cl)c1 [Example 1025] | 0.91 µM
Cn1cc(CNc2cc(Cl)c3ncc(C#N)c(Nc4ccc(F)c(Cl)c4)c3c2)cn1 [Example 1026] | 0.29 µM
N#Cc1cnc2c(Cl)cc(N(Cc3cn(C4CCN(CC5CC5)CC4)nn3)CC3CC3)cc2c1Nc1ccc(F)c(Cl)c1 [Example 1028] | 0.41 µM
N#Cc1cnc2c(Cl)cc(N(Cc3cn(C4CCN(C5CCC5)CC4)nn3)C3CCC3)cc2c1Nc1ccc(F)c(Cl)c1 [Example 1029] | 0.29 µM
CC(C)(C)OC(=O)N1CCC(O)(c2cncc(CNc3cc(Cl)c4ncc(C#N)c(Nc5ccc(F)c(Cl)c5)c4c3)c2)CC1 [Example 1031] | 0.16 µM
N#Cc1cnc2c(Cl)cc(NCc3cncc(C4(O)CCNCC4)c3)cc2c1Nc1ccc(F)c(Cl)c1 [Example 1032] | > 3 µM
CC(C)N1CCC(O)(c2cncc(CNc3cc(Cl)c4ncc(C#N)c(Nc5ccc(F)c(Cl)c5)c4c3)c2)CC1 [Example 1033] | 0.5 µM
CCN1CCC(O)(c2cncc(CNc3cc(Cl)c4ncc(C#N)c(Nc5ccc(F)c(Cl)c5)c4c3)c2)CC1 [Example 1034] | 0.4 µM
N#Cc1cnc2c(Cl)cc(NCc3cn(CCc4cncc(C(O)(C(F)(F)F)C(F)(F)F)c4)nn3)cc2c1Nc1ccc(F)c(Cl)c1 [Example 1042] | 0.13 µM
CC(C)N1CCC(c2cc(CNc3cc(Br)c4ncc(C#N)c(Nc5ccc(F)c(Cl)c5)c4c3)[nH]n2)CC1 [Example 1044] | 0.86 µM
CCN1CCC(c2cc(CNc3cc(Br)c4ncc(C#N)c(Nc5ccc(F)c(Cl)c5)c4c3)[nH]n2)CC1 [Example 1045] | 0.61 µM
N#Cc1cnc2c(Cl)cc(NCc3cncc(Br)c3)cc2c1Nc1ccc(F)c(Cl)c1 [Example 1047] | 0.47 µM
N#Cc1cnc2c(Cl)cc(NCc3cncc(C4(O)CCOCC4)c3)cc2c1Nc1ccc(F)c(Cl)c1 [Example 1048] | 0.45 µM
CC(C)(C)OC(=O)N1CC=C(c2cncc(CNc3cc(Cl)c4ncc(C#N)c(Nc5ccc(F)c(Cl)c5)c4c3)c2)CC1 [Example 1051] | > 3 µM
CC(C)N1CC=C(c2cncc(CNc3cc(Cl)c4ncc(C#N)c(Nc5ccc(F)c(Cl)c5)c4c3)c2)CC1 [Example 1054] | 1.3 µM
N#Cc1cnc2c(Cl)cc(NCc3cncc(C4=CCNCC4)c3)cc2c1Nc1ccc(F)c(Cl)c1 [Example 1056] | 0.88 µM

Second part, the compound after the results:

IC50 | SMILES
0.0082 µM | N#Cc1cnc2c(Cl)cc(NCc3cn(C4CCN(C[C@@H](O)[C@H](O)CO)CC4)nn3)cc2c1Nc1ccc(F)c(Cl)c1 [Example 991]
0.002 µM | N#Cc1cnc2c(Cl)cc(NCc3cn(C4CCN(CCO)CC4)nn3)cc2c1Nc1ccc(F)c(Cl)c1 [Example 992]
0.0068 µM | N#Cc1cnc2c(Cl)cc(NCc3cn(C4CCN(CC(O)CO)CC4)nn3)cc2c1Nc1ccc(F)c(Cl)c1 (stereo not drawn) [Example 994]
0.24 µM | CC#CCn1cc(CNc2cc(Cl)c3ncc(C#N)c(Nc4ccc(F)c(Cl)c4)c3c2)nn1 [Example 995]
0.011 µM | N#Cc1cnc2c(Cl)cc(NCc3cn(C4CC5CCC(C4)N5)nn3)cc2c1Nc1ccc(F)c(Cl)c1 (stereo not drawn) [Example 997]
0.022 µM | N#CCN1CCC(n2cc(CNc3cc(Cl)c4ncc(C#N)c(Nc5ccc(F)c(Cl)c5)c4c3)nn2)CC1 [Example 998]
0.017 µM | N#Cc1cnc2c(Cl)cc(NCc3cn(C4CCN(C5CC5)CC4)nn3)cc2c1Nc1ccc(F)c(Cl)c1 [Example 1003]
0.041 µM | CCN1C2CCC1CC(n1cc(CNc3cc(Cl)c4ncc(C#N)c(Nc5ccc(F)c(Cl)c5)c4c3)nn1)C2 (stereo not drawn) [Example 1005]
0.24 µM | CC(C)(C)OC(=O)N1CCCC(n2cc(CNc3cc(Cl)c4ncc(C#N)c(Nc5ccc(F)c(Cl)c5)c4c3)nn2)CC1 (stereo not drawn) [Example 1006]
0.016 µM | N#Cc1cnc2c(Cl)cc(NCc3cn(C4CCCNCC4)nn3)cc2c1Nc1ccc(F)c(Cl)c1 (stereo not drawn) [Example 1007]
0.49 µM | N#Cc1cnc2c(Cl)cc(NCc3cn(C4CCN(c5ncccc5C(F)(F)F)CC4)nn3)cc2c1Nc1ccc(F)c(Cl)c1 [Example 1008]
0.27 µM | N#Cc1cnc2c(Cl)cc(NCc3cn(C4CCCN(CC(F)(F)F)CC4)nn3)cc2c1Nc1ccc(F)c(Cl)c1 (stereo not drawn) [Example 1009]
0.31 µM | N#Cc1cnc2c(Cl)cc(NCc3cn(C4CCCN(CC(F)F)CC4)nn3)cc2c1Nc1ccc(F)c(Cl)c1 (stereo not drawn) [Example 1010]
0.0091 µM | N#Cc1cnc2c(Cl)cc(NCc3cn(C4CCCN(CCF)CC4)nn3)cc2c1Nc1ccc(F)c(Cl)c1 (stereo not drawn) [Example 1011]
> 3 µM | N#Cc1cnc2c(Cl)cc(NCc3cn(C4CCCN(CC(F)(F)C(F)(F)F)CC4)nn3)cc2c1Nc1ccc(F)c(Cl)c1 (stereo not drawn) [Example 1012]
0.43 µM | N#Cc1cnc2c(Cl)cc(NCc3cn(C4CCCN(CC(F)(F)C(F)F)CC4)nn3)cc2c1Nc1ccc(F)c(Cl)c1 (stereo not drawn) [Example 1013]
0.28 µM | N#Cc1cnc2c(Cl)cc(NCc3cn(C4CCN(CC(F)(F)F)CC4)nn3)cc2c1Nc1ccc(F)c(Cl)c1 [Example 1014]
0.092 µM | N#Cc1cnc2c(Cl)cc(NCc3cn(C4CCN(CC(F)F)CC4)nn3)cc2c1Nc1ccc(F)c(Cl)c1 [Example 1015]
0.015 µM | N#Cc1cnc2c(Cl)cc(NCc3cn(C4CCN(CCF)CC4)nn3)cc2c1Nc1ccc(F)c(Cl)c1 [Example 1016]

IC50 | SMILES
1.04 µM | N#Cc1cnc2c(Cl)cc(NCc3cn(C4CCN(CC(F)(F)C(F)(F)F)CC4)nn3)cc2c1Nc1ccc(F)c(Cl)c1 [Example 1017]
0.4 µM | N#Cc1cnc2c(Cl)cc(NCc3cn(C4CCN(CC(F)(F)C(F)F)CC4)nn3)cc2c1Nc1ccc(F)c(Cl)c1 [Example 1018]
0.43 µM | N#CCn1cc(CNc2cc(Cl)c3ncc(C#N)c(Nc4ccc(F)c(Cl)c4)c3c2)nn1 [Example 1021]
0.0079 µM | N#Cc1cnc2c(Cl)cc(NCc3cn(C4CCN(CC5CC5)CC4)nn3)cc2c1Nc1ccc(F)c(Cl)c1 [Example 1027]
0.012 µM | N#Cc1cnc2c(Cl)cc(NCc3cn(C4CCCN(C5CCC5)CC4)nn3)cc2c1Nc1ccc(F)c(Cl)c1 (stereo not drawn) [Example 1030]
0.036 µM | CCNC1CCC(n2cc(CNc3cc(Cl)c4ncc(C#N)c(Nc5ccc(F)c(Cl)c5)c4c3)nn2)CC1 (stereo not drawn) [Example 1035]
0.04 µM | CNC1CCC(n2cc(CNc3cc(Cl)c4ncc(C#N)c(Nc5ccc(F)c(Cl)c5)c4c3)nn2)CC1 (stereo not drawn) [Example 1036]
0.02 µM | CC(C)NC1CCC(n2cc(CNc3cc(Cl)c4ncc(C#N)c(Nc5ccc(F)c(Cl)c5)c4c3)nn2)CC1 (stereo not drawn) [Example 1037]
0.017 µM | N#Cc1cnc2c(Cl)cc(NCc3cn(C4CCC(NC5CCCC5)CC4)nn3)cc2c1Nc1ccc(F)c(Cl)c1 (stereo not drawn) [Example 1038]
0.1 µM | N#Cc1cnc2c(Cl)cc(NCc3cn(C4CCC(Nc5ccccn5)CC4)nn3)cc2c1Nc1ccc(F)c(Cl)c1 (stereo not drawn) [Example 1039]
0.017 µM | N#Cc1cnc2c(Cl)cc(NCc3cn(C4CCC(NC5CC5)CC4)nn3)cc2c1Nc1ccc(F)c(Cl)c1 (stereo not drawn) [Example 1040]
0.0057 µM | N#Cc1cnc2c(Cl)cc(NCc3cn(C4CCC(O)CC4)nn3)cc2c1Nc1ccc(F)c(Cl)c1 (stereo not drawn) [Example 1041]
0.052 µM | CN1C(C)(C)CC(n2cc(CNc3cc(Cl)c4ncc(C#N)c(Nc5ccc(F)c(Cl)c5)c4c3)nn2)CC1(C)C [Example 1043]
0.3 µM | CC(C)(C)OC(=O)N1C2CCC1CC(n1cc(CNc3cc(Cl)c4ncc(C#N)c(Nc5ccc(F)c(Cl)c5)c4c3)nn1)C2 (stereo not drawn) [Example 1046]
0.42 µM | CC(C)N1C2CCC1CC(n1cc(CNc3cc(Cl)c4ncc(C#N)c(Nc5ccc(F)c(Cl)c5)c4c3)nn1)C2 (stereo not drawn) [Example 1049]
0.046 µM | CS(=O)(=O)N1C2CCC1CC(n1cc(CNc3cc(Cl)c4ncc(C#N)c(Nc5ccc(F)c(Cl)c5)c4c3)nn1)C2 (stereo not drawn) [Example 1050]
0.023 µM | CCNC(=O)N1C2CCC1CC(n1cc(CNc3cc(Cl)c4ncc(C#N)c(Nc5ccc(F)c(Cl)c5)c4c3)nn1)C2 (stereo not drawn) [Example 1052]
0.024 µM | CC(=O)N1C2CCC1CC(n1cc(CNc3cc(Cl)c4ncc(C#N)c(Nc5ccc(F)c(Cl)c5)c4c3)nn1)C2 (stereo not drawn) [Example 1053]
0.008 µM | CCCN1C2CCC1CC(n1cc(CNc3cc(Cl)c4ncc(C#N)c(Nc5ccc(F)c(Cl)c5)c4c3)nn1)C2 (stereo not drawn) [Example 1055]
